How the values were obtained:
Format in all cases: cell-based
92 kDa gelatinase = assay: Gelatin zymography of bovine nasal cartilage conditioned media: expression of 92 kDa gelatinase
Method: (§1) To evaluate the effects of the compounds of the present invention on the expression of 72 kDa and 92 kDa gelatinases, samples obtained from the bovine nasal cartilage study (described above) were subjected to gelatin zymography.
(§2) Separating gels (8%) were made by combining 400 μL gelatin (25 mg/mL) with: 2.5 mL Tris (1.5 M); 100 μL SDS (10%); 2.6 mL acrylamide (30%); 10 μL TEMED; 4.6 mL dH2 O; 100 μL ammonium persulfate (10%). Stacking gels (4.5%) were formed by combining: 2.5 mL Tris (0.5 M); 100 μL SDS (10%); 1.5 mL acrylamide (30%); 10 μL TEMED; 5.8 mL dH2 O; 100 μL ammonium persulfate (10%).
(§3) Bovine nasal cartilage conditioned media was diluted (1:15) using sample buffer 1X (2% SDS, 15% glycerol, 0.01% bromophenol blue, 0.25M Trizma Base, pH 6.8). Thirty microliters of each of the diluted samples and molecular weight standards were subjected to electrophoresis at 4° C. under constant current conditions (20 mA of current/gel) using Tris/Glycine running buffer (0.5 M Trizma Base, pH 8.8 using glycine, 1% SDS) that was diluted 1:20 before use.
After completion of the electrophoretic procedure, the gel was first washed twice for 15 minutes in 2.5% Triton X-100. The gel was then rinsed with the gel incubation buffer (0.05 M Tris, pH 8.2, 0.005 M CaCl2, 0.5 μM ZnCl2) and incubated overnight in this buffer at 37° C. After the incubation period, the gel was stained for 30 minutes in 0.125% Coomassie and destained using 10% methanol/5% acetic acid destaining solution.

bovine nasal cartilage = assay: Bovine nasal cartilage assay: inhibition of IL-1β-induced proteoglycan loss (chondroitin sulfate by 1,9 DMB); settings: Bos taurus; concentration preventing 50% of proteoglycan loss; IL-1β-stimulated cartilage plugs
Method: The BNC (bovine nasal cartilage) assay provides a model for evaluating chrondroprotective compounds that block cartilage degradation through inhibition of enzyme activity or by altering the gene expression of the matrix metalloproteinases such as stromelysin.
The assay is accomplished in two phases. The cartilage plugs are first incubated with IL-1β in the presence of the compounds of the present method. The amount of proteoglycan released is then quantified by measuring chondroitin sulfate present in the media using the 1,9-Dimethylmethylene Blue Assay (1,9 DMB).
Bovine nasal septum is dissected free of surrounding tissue and wiped with 70% alcohol. A sterile cork borer is used to remove 5-mm cartilage disks of 2- to 3-mm thickness. Explants are equilibrated for 96 hours in F-12 supplemented with 10% fetal calf serum (FCS) and antibiotics at 37° C. in a humidified atmosphere of 95% air and 5% CO2. Explants are then rinsed with 1 mL F-12 Nutrient Mixture (without phenol red) in order to remove traces of FCS. Each treatment group is done in triplicate allowing: controls (500 μL F-12 medium +110 μL PBS with 0.1% BSA +7 μL DMSO); IL-1β (500 μL F-12 medium without phenol red +100 μL IL-1β (500 U) +7 μL DMSO +10 μL PBS with 0.1% BSA); and dose responses (10, 1, and 0.1 μM) (F-12 medium without phenol red +100 μL IL-1β (500 U) +7 μL compound dissolved in DMSO +10 μL PBS with 0.1% BSA), to be tested per each 24-well plate. The cartilage plugs are incubated in the presence of conditioned media (IL-1β+compound) for 48 hours. Fresh unconditioned media (no IL-1β or compound) is added and incubated for an additional 24 hours. Both the conditioned and unconditioned media are collected and saved for analysis using the 1,9 DMB assay.
The ability of a compound to inhibit proteoglycan released from the cartilage plugs is quantified by measuring chondroitin sulfate. This is done using the calorimetric 1,9 DMB assay. Depending on the amount of chondroitin sulfate present in the media a color change will occur turning the normally deep blue dye, vivid pink. This color change is measured using a Titertek Multiscan MCC 340 plate reader at 540 nm. A Cetus Pro/Pette is used to speed dilution and pipetting steps. The Cetus uses Sarstedt vials, designed for radioimmune assays, which have been inserted into Sarstedt 96-vial aluminum racks. The first row of 12 slots is left empty in order to accommodate the chondroitin sulfate standards (0.01-0.32 μg/mL shark chondroitin sulfate in 0.1 M phosphate buffer, pH 7.0, containing 0.01 M L-cysteine HCl and 0.05 M EDTA). It is necessary to dilute (1:5, 1:10) the medium before a […] is performed by adding 10 μL of collected media to 290 μL DMF (16 mg dye/1 L of 0.1 M formate buffer, pH 3.5, containing 5 mL ethanol) and reading at […]. Dilutions are performed on both the 48-hour and 72-hour media samples collected and saved earlier. Once the experiment has been completed, in order to determine the total amount of proteoglycan remaining in the plugs, they are subjected to papain digestion. Cartilage explants are digested in 20-mL glass scintillation vials by adding 50 μL papain in 1.0 mL cysteine buffer (0.01 M phosphate buffer, pH 7.0 containing 0.01 M L-cysteine HCl and 0.05 M EDTA). Digested material is diluted (1:60) and chondroitin sulfate values determined using the 1,9 DMB assay.
Determination of chondroitin sulfate in each sample is accomplished by subtracting the constant value determined from the linear regression performed on the standard curve, from the O.D. value for a particular well, and then dividing by the X coefficient calculated from the linear regression done on the standard curve. Each experimental well is split into two samples for determining chondroitin sulfate values, then the two are averaged. […]

72 kDa gelatinase = assay: Gelatin zymography of bovine nasal cartilage conditioned media: expression of 72 kDa gelatinase; settings: various concentrations, FIG. 1
Method: as §1, §2, §3
After completion of the electrophoretic procedure, the gel was first washed twice for 15 minutes in 2.5% Triton X-100. The gel was then rinsed with the gel incubation buffer (0.05 M Tris, pH 8.2, 0.005 M CaCl2, 0.5 μM ZnCl2) and incubated overnight in this buffer at 37° C. […]

IC50 (bovine nasal cartilage) [µM]	Compound	other results
1.3	Cc1ccc(Cl)c(Nc2ccccc2C=C2SC(=S)NC2=O)c1Cl [Compound 11, 5-[2-(2,6-Dichloro-3-methyl-phenylamino)-benzylidene]-2-thioxo-thiazolidin-4-one]	inhibiting expression of IL-1β-induced 92 kDa gelatinase (92 kDa gelatinase; various concentrations, IL-1β-induced, FIG. 1): effective in inhibiting expression of IL-1β-induced 92 kDa gelatinase in a dose-dependent manner; specificity of effects (92 kDa versus 72 kDa gelatinase) (92 kDa gelatinase; versus 72 kDa gelatinase): specific to 92 kDa; effect on expression of 72 kDa gelatinase (72 kDa gelatinase): no effect on expression of 72 kDa gelatinase
31	Cc1cccc(Nc2ccccc2-c2n[nH]c(=S)o2)c1C [Compound 3, 5-[2-(2,3-Dimethyl-phenylamino)-phenyl]-3H-[1,3,4]oxadiazole-2-thione]	–
1.3	Cc1ccc(Cl)c(Nc2ccccc2C(=O)NNC(N)=S)c1Cl [Compound 6, 2-[(2,6-dichloro-3-methylphenyl)amino]-,2-(aminothioxomethyl)hydrazide]	–
26.8	Cc1ccc(Cl)c(Nc2ccccc2-c2n[nH]c(=S)o2)c1Cl [Compound 4, 5-[2-(2,6-Dichloro-3-methyl-phenylamino)-phenyl]-3H-[1,3,4]oxadiazole-2-thione]	–
18.9	CC(O)c1cccc(Nc2ccccc2-c2n[nH]c(=S)o2)c1Cl (stereo not drawn) [Compound 10, 5-{2-[2-Chloro-3-(1-hydroxy-ethyl)-phenylamino]-phenyl}-3H-[1,3,4]oxadiazole-2-thione]	–
6.4	Cc1ccc(Cl)c(Nc2ccccc2-c2nnc(NC#N)s2)c1Cl [Compound 12, Cyanamide, [5-[2-[(2,6-dichloro-3-methylphenyl)amino]phenyl]-1,3,4-thiadiazol-2-yl]-]	–
5.3	CCOC(=O)N(O)C(C)c1cccc(Nc2ccccc2-c2n[nH]c(=S)o2)c1Cl (stereo not drawn) [Compound 13, Carbamic acid, [1-[2-chloro-3-[[2-(4,5-dihydro-5-thioxo-1,3,4-oxadiazol-2-yl)phenyl]amino]phenyl]ethyl]hydroxy-, ethyl ester]	–
0.8	Cc1ccc(Cl)c(Nc2ccccc2/C=C2\SC(NC#N)=NC2=O)c1Cl [Compound 17, Cyanamide, [5-[[2-[(2,6-dichloro-3-methylphenyl)amino]phenyl]methylene]-4,5-dihydro-4-oxo-2-thiazolyl]-, (Z)-]	–
9.9	Cc1ccc(Cl)c(Nc2ccccc2-c2n[nH]c(=S)[nH]2)c1Cl [Compound 5, 5-[2-(2,6-Dichloro-3-methyl-phenylamino)-phenyl]-2,4-dihydro-[1,2,4]triazole-3-thione]	–
40.8	O=c1[nH]nc(-c2ccccc2Nc2ccccc2)o1 [Compound 2, 5-(2-Phenylamino-phenyl)-3H-[1,3,4]oxadiazol-2-one]	–
0.3	Cc1ccc(Cl)c(Nc2ccccc2-c2nsc(NC#N)n2)c1Cl [Compound 18, Cyanamide, [3-[2-[(2,6-dichloro-3-methylphenyi)amino]phenyl]-1,2,4-thiadiazol-5-yl]-]	–
1.4	CNC(=O)N(O)C(C)c1cccc(Nc2ccccc2-c2n[nH]c(=S)o2)c1Cl (stereo not drawn) [Compound 16, Urea, N-[1-[2-chloro-3-[[(4,5-dihydro-5-thioxo-1,3,4-oxadiazol-2-yl)phenyl]amino]phenyl]ethyl]-N-hydroxy-N'-methyl-]	–
4.5	Cc1ccc(Cl)c(Nc2ccccc2C=C2SC(=O)NC2=O)c1Cl [Compound 15, 5-[2-(2,6-Dichloro-3-methyl-phenylamino)-benzylidene]-thiazolidine-2,4-dione]	–
4.9	Cc1ccc(Cl)c(Nc2ccccc2-c2n[nH]c(=S)n2C)c1Cl [Compound 8, 5-[2-(2,6-Dichloro-3-methyl-phenylamino)-phenyl]-4-methyl-2,4-dihydro-[1,2,4]triazole-3-thione]	–
23.2	CC(C)(C)c1cc(Nc2ccccc2-c2n[nH]c(=S)o2)cc(C(C)(C)C)c1O [Compound 9, 5-[2-(3,5-Di-tert-butyl-4-hydroxy-phenylamino)-phenyl]-3H-[1,3,4]oxadiazole-2-thione]	–
